Values after ≈ are worked out from the molar mass of the structure shown.
Assays:
Eenterococcus faecalis = details: broth microdilution, 16 h incubation; three independent experiments in triplicate, SD 14.0%
Protocol: (§1) MICs of the peptides against six standard bacteria and four multidrug-resistant bacteria were determined by a broth microdilution assay as described previously. […] Cytotoxicities against mammalian cells were measured against human RBCs, mouse macrophage-derived RAW264.7 cells, and fibroblast NIH-3T3 cells. The anti-inflammatory activities of the peptides were examined by inhibiting nitrite production in LPS-stimulated RAW264.7 cells.

MDRAB 12035(R) = details: broth microdilution, 16 h; unit not given
Protocol: (§2) We examined the antimicrobial activities of the peptides against multidrug-resistant bacterial strains, including four gram-negative species (S. typhimurium 8009(R), E. coli 1229(R), P. aeruginosa 2095(R), and A. baumannii 12035(R); Table 3).
as §1

MDREC 1229(R) = details: broth microdilution, 16 h; unit not given
Protocol: as §2, §1

MDRPA 2095(R) = details: broth microdilution, 16 h; unit not given
Protocol: as §2, §1

MDRST 8009(R) = details: broth microdilution, 16 h; unit not given
Protocol: as §2, §1

[1] = system: gram-negative bacteria (E. coli, S. typhimurium, P. aeruginosa); details: for Therapeutic Index (MHC/GM), gram-negative: ratio MHC (μM) over GM of MIC (μM); for GM of the MIC values, gram-negative: three gram-negative standard strains, 256 μM used when no activity at 128 μM
Protocol: (§3) This property is assessed by the therapeutic index which can be defined as a ratio of the […] against human hRBCs to the MIC against bacterial cells.
as §1

[2] = system: gram-positive bacteria (B. subtilis, E. faecalis, S. aureus); details: for Therapeutic Index (MHC/GM), gram-positive: ratio MHC (μM) over GM of MIC (μM); for GM of the MIC values, gram-positive: three gram-positive standard strains, 256 μM used when no activity at 128 μM
Protocol: as §3, §1

human erythrocytes = experiment: Hemolytic activity; assay type: cell-based; details: for MHC (minimal peptide concentration that produces hemolysis): human RBCs, 200 μM entered when no detectable hemolysis at 100 μM
Protocol: (§4) We examined the cytotoxicity against human erythrocytes. […] Next, we examined the cytotoxicity of the peptides against RAW264.7 macrophage cells. We assessed the effects of the peptides on cell growth by measuring mitochondrial reduction of MTT to a colored product in live cells. […] On the other hand, PapC produced high cytotoxicity against RAW264.7 cells, even at low concentrations. […] In case of PapN-2A, Pap-5A, and Pap-2A5A, the cell survival rates at a peptide concentration of 100 μM were approximately 90% or more. Thus, Trp^2 and Phe^5 are important for the cytotoxic activity of papiliocin toward RAW264.7 cells.
as §1

[3] = system: RAW264.7 macrophage cells; experiment: Cytotoxicity, MTT; assay type: cell-based, mouse
Protocol: as §4, §1

[4] = Calcein leakage from zwitterionic LUVs; details: EYPC/CH 10:1 LUVs, mimic human erythrocytes
Protocol: Figure 5 Dose-response curves of calcein leakage from (A) egg yolk phosphatidylcholine (EYPC)/egg yolk phosphatidylglycerol (EYPG) (7:3, w:w) and (B) EYPC/cholesterol (CH) large unilamellar vesicles (LUVs; 10:1, w-w) induced by the peptides. Calcein leakage was measured 2 min after the addition of papiliocin. The lipid concentration used in the leakage experiments was 64 μM.
None of the peptides containing the N-terminal helix permeated zwitterionic vesicles (10:1 [w/w] EYPC/CH) effectively. Zwitterionic vesicles mimic the outer leaflet components of human erythrocytes.
In order to investigate the mode of action, membrane permeabilization ability was monitored using a model membrane and E.coli. Calcein leakage induced by the peptides was measured in egg yolk phosphatidylcholine (EYPC)/egg yolk phosphatidylglycerol (EYPG) (7:3, w/w) and EYPC/cholesterol (CH) large unilamellar vesicles (LUVs; 10:1, w:w) as described previously. The depolarization assay was conducted with intact E. coli bacteria (KCTC 1682) as well as E. coli spheroplasts (ATCC 25922)[51][52]. The ability of peptide to depolarize the membrane is indicated by an increase in the fluorescence of diSC3-5. […] The membrane potential dissipating activity of the peptides can be calculated as follows: […]

Bacillus subtilis = details: broth microdilution, 16 h incubation; three independent experiments in triplicate, SD 14.0%
Protocol: as §1

Escherichia coli = details: broth microdilution, 16 h incubation; three independent experiments in triplicate, SD 14.0%
Protocol: as §1

Pseudomonas aeruginosa = details: broth microdilution, 16 h incubation; three independent experiments in triplicate, SD 14.0%
Protocol: as §1

Salmonella typhimurium = details: broth microdilution, 16 h incubation; three independent experiments in triplicate, SD 14.0%
Protocol: as §1

Staphylococcus aureus = details: broth microdilution, 16 h incubation; three independent experiments in triplicate, SD 14.0%
Protocol: as §1

E. coli (KCTC 1682) = experiment: Time-killing kinetics; assay type: cell-based, Escherichia coli; details: even at 4× MIC, 37 °C
[5] = system: LPS-stimulated RAW264.7 cells; experiment: Inhibition of NO (nitrite) production; assay type: cell-based, mouse; details: 10 μM peptide stated for PapN series
Excerpt: When released from gram-negative bacteria, LPS causes septic shock by inducing the production of pro-inflammatory cytokines and NO[33]. To examine the structural mechanism of the anti-inflammatory activity of papiliocin, we indirectly measured inhibition of NO production by the peptides in LPS-simulated RAW264.7 macrophages. […] Papiliocin was markedly more efficient than papiliocin-2A, papiliocin-5A, or papiliocin-2A5A, implying that Trp^2 and Phe^5 are important for anti-inflammatory activity.
as §1

[6] = STD-NMR of peptides bound to LPS; assay type: binding; details: 0.5 mM peptide, 0.1 mg/mL LPS in D2O, pH 5.9, 298 K
Protocol: To investigate the mode of peptide interaction with LPS, we performed STD-NMR experiments.
(A) Papiliocin, (B) PapN, and (C) PapC. Spectral differences primarily constituted resonances fromn the peptide protons bound to LPS. The STD experiments were carried out using a peptide concentration of 0.5 mM in presence of 0.1 mg/mL LPS in D2O, pH 5.9 at 298 K.

Row | Compound | MIC, Eenterococcus faecalis (Eenterococcus faecalis) | MIC, MDRAB 12035(R) (MDRAB 12035(R)) | MIC, MDREC 1229(R) (MDREC 1229(R)) | MIC, MDRPA 2095(R) (MDRPA 2095(R)) | MIC, MDRST 8009(R) (MDRST 8009(R)) | Therapeutic Index (MHC/GM), gram-negative [1] | GM of the MIC values, gram-negative [1] | Therapeutic Index (MHC/GM), gram-positive [2] | GM of the MIC values, gram-positive [2] | MHC (minimal peptide concentration that produces hemolysis) (human erythrocytes) | permeabilization of zwitterionic vesicles, in words [4] | further results
1 | CC[C@H](C)[C@H](NC(=O)CN)C(=O)NCC(=O)N[C@@H](C)C(=O)N[C@H](C(=O)N[C@@H](CC(C)C)C(=O)N[C@@H](CCCCN)C(=O)N[C@H](C(=O)N[C@@H](CC(C)C)C(=O)N[C@H](C(=O)N[C@H](C(=O)NCC(=O)N[C@@H](CC(C)C)C(=O)N1CCC[C@H]1C(=O)N[C@@H](C)C(=O)N[C@@H](CC(C)C)C(=O)N[C@H](C(=O)N[C@@H](CO)C(=O)N[C@@H](Cc1c[nH]c2ccccc12)C(=O)N[C@H](C(=O)N[C@@H](CCCCN)C(=O)N[C@@H](CCCNC(=N)N)C(=O)N[C@@H](CCCCN)C(=O)N[C@@H](CCCNC(=N)N)C(=O)N[C@@H](CCC(N)=O)C(=O)N[C@@H](CCC(N)=O)C(N)=O)[C@@H](C)CC)[C@@H](C)CC)[C@@H](C)O)[C@@H](C)O)C(C)C)C(C)C [Melittin, reference compound] | 2.00 µM (≈ 5.69 µg/mL) | 4.00 µM (≈ 11.4 µg/mL) | 8.00 µM (≈ 22.8 µg/mL) | 2.00 µM (≈ 5.69 µg/mL) | 8.00 µM (≈ 22.8 µg/mL) | 0.098 | 4.00 µM | 0.117 | 3.33 µM | 0.391 µM | membrane-disrupting activities against both negatively charged and zwitterionic vesicles | cytotoxicity at the peptide's MIC ([3]; hRBCs and RAW264.7 cells (Fig. 4A,B)): high cytotoxicity at its MIC
2 | AVAVVGQAATVVK-NH2 [PapC, C-terminal analog composed of C-terminal helix residues Ala25–Lys37 of papiliocin] | >128 µM | >128 µM | >128 µM | >128 µM | >128 µM | 0.007 | 213 µM | 0.006 | 256 µM | 1.56 µM | permeabilized zwitterionic vesicles effectively | MIC, Bacillus subtilis (Bacillus subtilis): >128 µM; MIC, Escherichia coli (Escherichia coli): 128 µM; MIC, Pseudomonas aeruginosa (Pseudomonas aeruginosa): >128 µM; MIC, Salmonella typhimurium (Salmonella typhimurium): >128 µM; MIC, Staphylococcus aureus (Staphylococcus aureus): >128 µM; hemolytic activity (human erythrocytes; human erythrocytes, 6.25 μM peptide): 49%; killing of E. coli within an hour (E. coli (KCTC 1682)): did not detectably kill bacteria within an hour; survival rate of RAW264.7 cells ([3]; MTT, 10 μM peptide): 44.2%; inhibition of NO production, in words [5]: does not inhibit NO production; STD effect in presence of LPS [6]: not detected for any region
